Assay results: patent publication US20240360194A1, “New Peptides as Potent and Selective GIP Receptor Agonists” (Sanofi, priority 2021, published 2024)
In brackets after ≈: the same amount, converted by molar mass. Like-named read-outs stand apart in the source and are kept apart here. Blank lines part the entries; values can stand above or below the molecule they belong to.

Experiments:
[1] = Chemical stability assessment (UHPLC-UV purity loss on storage in solution); type: physicochemical
Method in brief: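 Peptides dissolved at ~300 μM (purity-corrected) in 20 mM phosphate pH 7.4, or 8 mM phosphate pH 7.4 with 14 mg/ml propylene glycol and 5.5 mg/ml phenol; filtered, stored 28 days at 5 and 40 °C. Supernatant analysed by UHPLC-UV; stability expressed as relative purity loss.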

[2] = Solubility assessment (UHPLC-UV of supernatant, target 10 mg/ml); type: physicochemical; conditions: for solubility at 24 h: read-out: Soluble amount
Method in brief: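 Peptides at 10 mg/ml (purity-corrected) in 100 mM phosphate pH 7.4, optionally with 2.7 mg/ml m-cresol; gentle agitation 1 h, then 5° C. overnight (24 h). Supernatant after 15 min centrifugation at 2500 RCF quantified by UHPLC-UV, with sequence-based extinction coefficients.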

[3] = molecular target: T1, human GIP receptor (hGIPR) (Homo sapiens, UniProt P48546); assay: In vitro cellular cAMP assay for GIP receptor efficacy (HEK-293 cell line over-expressing receptor); type: cell-based
T1 sequence (P48546 22-466): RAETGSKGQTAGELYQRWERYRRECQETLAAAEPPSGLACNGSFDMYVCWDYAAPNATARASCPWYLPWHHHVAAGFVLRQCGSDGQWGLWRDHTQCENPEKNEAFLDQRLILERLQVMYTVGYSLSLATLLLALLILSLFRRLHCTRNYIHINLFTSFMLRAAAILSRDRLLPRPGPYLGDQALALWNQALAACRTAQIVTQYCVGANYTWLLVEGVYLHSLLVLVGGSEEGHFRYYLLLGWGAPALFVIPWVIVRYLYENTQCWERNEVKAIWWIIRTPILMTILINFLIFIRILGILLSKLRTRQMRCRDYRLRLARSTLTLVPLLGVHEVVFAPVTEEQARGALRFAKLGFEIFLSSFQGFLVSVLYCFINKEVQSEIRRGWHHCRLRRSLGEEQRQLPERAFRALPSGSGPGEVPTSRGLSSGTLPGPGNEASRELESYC

[4] = Pharmacokinetic evaluation in mice; type: in vivo, female C57Bl/6 mice; conditions: female, C57Bl/6, mouse, plasma, mice; for AUC(0-t): read-out: AUClast; for Cmax: read-out: Cmax; for half-life: read-out: T1/2 (converted)
Protocol: (§1) Compounds were administered in a suitable buffer system, e.g. PBS buffer solution at pH7.4 or DPBS solution at concentrations of 0.05, 0.1, 0.5 or 1 mg/ml depending on dose, species and administration volume. Female C57Bl/6 mice were dosed 0.25 mg/kg, 0.5 mg/kg or 1 mg/kg intravenously (i.v.) or subcutaneously (s.c.). The mice were sacrificed, and blood samples were collected after 0.08, 0.25, 0.5, 1, 2, 4, 8, 24, 32, and 48 h post i.v. application and 0.25, 0.5, 1, 2, 4, 8, 24, 32, and 48 h post s.c. application, respectively. Plasma samples were analysed after protein precipitation via liquid chromatography mass spectrometry (LC/MS). PK parameters and half-life were calculated using Phoenix-WinNonlin 8.1 using a non-compartmental model and linear trapezoidal interpolation calculation. Pharmacokinetic profiles were determined as described in Methods.

[5] = Pharmacokinetic evaluation in rats; type: in vivo; conditions: male, SD, rat, plasma, rats; for AUC(0-t): read-out: AUClast; for Cmax: read-out: Cmax; for half-life: read-out: T1/2 (converted)
Protocol: as §1, with “Male SD rats” for “Female C57Bl/6 mice”, “Blood” for “The mice were sacrificed, and blood”

[6] = Chemical stability buffer system A: 20 mM phosphate buffer pH 7.4, ~300 μM
[7] = 100 mM phosphate buffer pH 7.4 (solubility buffer system A), pH 7.4, Solubility buffer system A: 100 mM phosphate buffer pH 7.4
[8] = pH 7.4, Solubility buffer system C: 100 mM phosphate buffer pH 7.4, 2.7 mg/ml m-cresol
[9] = EC50 hGIPR 0.1% BSA, HEK-293, 0.1% BSA
[10] = iv, 0.25 mg/kg i.v., read-out: Cl (converted)
[11] = sc, 0.5 mg/kg s.c., read-out: F

Relative purity loss over 28 days at 40° C. [1, 6]: 7.4%
solubility at 24 h [2, 7]: > 9500 µg/mL
solubility at 24 h [2, 8]: 7600 µg/mL (≈ 1760 µM)
EC50 [3, 9]: 0.0267 nM
EC50 ([3]; EC50 hGIPR 0.1% HSA, HEK-293, 0.1% HSA): 0.0011 nM
Compound: CC[C@H](C)[C@H](NC(=O)[C@H](CCCNC(=N)N)NC(=O)[C@H](CC(=O)O)NC(=O)[C@H](CCCCNC(=O)COCCOCCNC(=O)COCCOCCNC(=O)CC[C@H](NC(=O)CCCCCCCCCCCCCCCCC(=O)O)C(=O)O)NC(=O)C(C)(C)NC(=O)[C@@H](NC(=O)[C@H](CO)NC(=O)[C@H](CC(C)C)NC(=O)[C@H](CC(=O)O)NC(=O)[C@H](CO)NC(=O)[C@@H](NC(=O)[C@H](Cc1ccccc1)NC(=O)[C@@H](NC(=O)CNC(=O)[C@H](CCC(=O)O)NC(=O)C(C)(C)NC(=O)[C@@H](N)Cc1ccc(O)cc1)[C@@H](C)O)[C@@H](C)CC)[C@@H](C)CC)C(=O)N[C@@H](Cc1c[nH]cn1)C(=O)N[C@@H](CCC(N)=O)C(=O)NC(C)(C)C(=O)N[C@@H](CCC(=O)O)C(=O)N[C@@H](Cc1ccccc1)C(=O)N[C@H](C(=O)N[C@@H](CCC(=O)O)C(=O)N[C@@H](Cc1c[nH]c2ccccc12)C(=O)N[C@@H](CC(C)C)C(=O)N[C@@H](CC(C)C)C(=O)N[C@@H](C)C(=O)N[C@@H](CCC(N)=O)C(=O)N[C@@H](CCC(=O)O)C(=O)NCC(N)=O)[C@@H](C)CC [SEQ ID NO: 12, H2N-Y-Aib-E-G-T-F-I-S-D-L-S-I-Aib-K[{AEEA}2-gGlu-C18OH]-D-R-I-H-Q-Aib-E-F-I-E-W-L-L-A-Q-E-G-NH2]

Relative purity loss over 28 days at 40° C. [1, 6]: 5.6%
Relative purity loss over 28 days at 40° C. ([1]; Chemical stability buffer system B: 8 mM phosphate buffer pH 7.4, 14 mg/ml propylene glycol, 5.5 mg/ml phenol): 5.9%
solubility at 24 h [2, 7]: > 9000 µg/mL
solubility at 24 h [2, 8]: 1800 µg/mL (≈ 415 µM)
EC50 [3, 9]: 0.00593 nM
AUC(0-t) ([4]; iv, 0.25 mg/kg i.v.): 20800 ng·h/mL
clearance [4, 10]: 0.198 mL/min/kg
Cmax ([4]; iv, 0.25 mg/kg i.v.): 3470 ng/mL
half-life ([4]; iv, 0.25 mg/kg i.v.): 7.9 h
AUC(0-t) ([4]; sc, 0.5 mg/kg s.c.): 37500 ng·h/mL
Cmax ([4]; sc, 0.5 mg/kg s.c.): 2390 ng/mL
bioavailability [4, 11]: 91%
half-life ([4]; sc, 0.5 mg/kg s.c.): 8.21 h
AUC(0-t) ([5]; iv, 0.25 mg/kg i.v.): 35700 ng·h/mL
clearance [5, 10]: 0.112 mL/min/kg
Cmax ([5]; iv, 0.25 mg/kg i.v.): 4620 ng/mL
half-life ([5]; iv, 0.25 mg/kg i.v.): 11.2 h
AUC(0-t) ([5]; sc, 0.5 mg/kg s.c.): 69100 ng·h/mL
Cmax ([5]; sc, 0.5 mg/kg s.c.): 2880 ng/mL
bioavailability [5, 11]: 98%
half-life ([5]; sc, 0.5 mg/kg s.c.): 9.7 h
Compound: CC[C@H](C)[C@H](NC(=O)[C@H](CCCNC(=N)N)NC(=O)[C@H](CC(=O)O)NC(=O)[C@H](CCCCNC(=O)COCCOCCNC(=O)COCCOCCNC(=O)CC[C@H](NC(=O)CCCCCCCCCCCCCCCCC(=O)O)C(=O)O)NC(=O)C(C)(C)NC(=O)[C@@H](NC(=O)[C@H](CO)NC(=O)[C@H](CC(C)C)NC(=O)[C@H](CC(=O)O)NC(=O)[C@H](CO)NC(=O)[C@@H](NC(=O)[C@H](Cc1ccccc1)NC(=O)[C@@H](NC(=O)CNC(=O)[C@H](CCC(=O)O)NC(=O)C(C)(C)NC(=O)[C@@H](N)Cc1ccc(O)cc1)[C@@H](C)O)[C@@H](C)CC)[C@@H](C)CC)C(=O)N[C@@H](Cc1c[nH]cn1)C(=O)N[C@@H](CCC(N)=O)C(=O)NC(C)(C)C(=O)N[C@@H](CCC(=O)O)C(=O)N[C@@H](Cc1ccccc1)C(=O)N[C@H](C(=O)N[C@@H](CCC(=O)O)C(=O)N[C@@H](Cc1c[nH]c2ccccc12)C(=O)N[C@@H](CC(C)C)C(=O)N[C@@H](CC(C)C)C(=O)N[C@@H](C)C(=O)N[C@@H](CCC(N)=O)C(=O)N[C@@H](CCCNC(=N)N)C(=O)NCC(N)=O)[C@@H](C)CC [SEQ ID NO: 6, H2N-Y-Aib-E-G-T-F-I-S-D-L-S-I-Aib-K[{AEEA}2-gGlu-C18OH]-D-R-I-H-Q-Aib-E-F-I-E-W-L-L-A-Q-R-G-NH2]

Relative purity loss over 28 days at 40° C. [1, 6]: 5.1%
solubility at 24 h [2, 7]: > 30000 µg/mL
solubility at 24 h [2, 8]: > 8700 µg/mL
EC50 [3, 9]: 0.0208 nM
Compound: CC[C@H](C)[C@H](NC(=O)[C@H](Cc1ccccc1)NC(=O)[C@H](CCC(=O)O)NC(=O)[C@H](CCC(=O)O)NC(=O)[C@H](CCC(N)=O)NC(=O)[C@H](Cc1c[nH]cn1)NC(=O)[C@@H](NC(=O)[C@H](CCCNC(=N)N)NC(=O)[C@H](CC(=O)O)NC(=O)[C@H](CCCCNC(=O)COCCOCCNC(=O)COCCOCCNC(=O)CC[C@H](NC(=O)CCCCCCCCCCCCCCCCC(=O)O)C(=O)O)NC(=O)C(C)(C)NC(=O)[C@@H](NC(=O)[C@H](CO)NC(=O)[C@H](CC(C)C)NC(=O)[C@H](CC(=O)O)NC(=O)[C@H](CO)NC(=O)[C@@H](NC(=O)[C@H](Cc1ccccc1)NC(=O)[C@@H](NC(=O)CNC(=O)[C@H](CCC(=O)O)NC(=O)C(C)(C)NC(=O)[C@@H](N)Cc1ccc(O)cc1)[C@@H](C)O)[C@@H](C)CC)[C@@H](C)CC)[C@@H](C)CC)C(=O)N[C@@H](CCC(=O)O)C(=O)N[C@@H](Cc1c[nH]c2ccccc12)C(=O)N[C@@H](CC(C)C)C(=O)N[C@@H](CC(C)C)C(=O)N[C@@H](C)C(=O)N[C@@H](CCC(N)=O)C(=O)N[C@@H](CCCNC(=N)N)C(=O)NCC(N)=O [SEQ ID NO: 4, H2N-Y-Aib-E-G-T-F-I-S-D-L-S-I-Aib-K[{AEEA}2-gGlu-C18OH]-D-R-I-H-Q-E-E-F-I-E-W-L-L-A-Q-R-G-NH2]

Relative purity loss over 28 days at 40° C. [1, 6]: 6.5%
Soluble amount ([2]; pH 7.4): 8.5 mg/mL
solubility ([2]; pH 7.4, Soluble amount): > 9500 µg/mL
EC50 [3, 9]: 0.0216 nM
Compound: CC[C@H](C)[C@H](NC(=O)[C@H](Cc1ccccc1)NC(=O)[C@H](CCC(=O)O)NC(=O)[C@H](CCC(=O)O)NC(=O)[C@H](CCC(N)=O)NC(=O)[C@H](Cc1c[nH]cn1)NC(=O)[C@@H](NC(=O)[C@H](CCCNC(=N)N)NC(=O)[C@H](CC(=O)O)NC(=O)[C@H](CCCCNC(=O)COCCOCCNC(=O)COCCOCCNC(=O)CC[C@H](NC(=O)CCCCCCCCCCCCCCCCC(=O)O)C(=O)O)NC(=O)C(C)(C)NC(=O)[C@@H](NC(=O)[C@H](CO)NC(=O)[C@H](CC(C)C)NC(=O)[C@H](CC(=O)O)NC(=O)[C@H](CO)NC(=O)[C@@H](NC(=O)[C@@](C)(CC)NC(=O)[C@@H](NC(=O)CNC(=O)[C@H](CCC(=O)O)NC(=O)C(C)(C)NC(=O)[C@@H](N)Cc1ccc(O)cc1)[C@@H](C)O)[C@@H](C)CC)[C@@H](C)CC)[C@@H](C)CC)C(=O)N[C@@H](CCC(=O)O)C(=O)N[C@@H](Cc1c[nH]c2ccccc12)C(=O)N[C@@H](CC(C)C)C(=O)N[C@@H](CC(C)C)C(=O)N[C@@H](C)C(=O)N[C@@H](CCC(N)=O)C(=O)N[C@@H](CCCNC(=N)N)C(=O)NCC(N)=O [SEQ ID NO: 15, H2N-Y-Aib-E-G-T-Iva-I-S-D-L-S-I-Aib-K[{AEEA}2-gGlu-C18OH]-D-R-I-H-Q-E-E-F-I-E-W-L-L-A-Q-R-G-NH2]
